In patent US20260373134A1, “INHIBITORS OF DYRK1A” (Beth Israel Deaconess Medical Center, Inc., priority 2023, published 2026):
Where two headings read alike, the source gives them in different places.

Key:
DYRK1A [1] = target: T1, DYRK1A (Homo sapiens, UniProt Q13627); test: Kinase assay, % inhibition at fixed concentrations (Table 1b); assay type: binding; details: for inhibition at 10 µM: read-out: % inh at 10 μM
T1 construct: T7 phage (kinase-tagged T7 phage), or a DNA tag for qPCR if produced in HEK-293; made in house; host or cells: E. coli (BL21-derived, T7 phage) for most kinases, HEK-293 for the remaining ones
Procedure: (§1) Methods: a competitive binding assay was used as the primary screen to measure the binding affinity (KD) to DYRK1A. Selectivity against DYRK1B/2 as well as the related CLK1-4 was determined by comparison of the KD in each of the enzymes. Cellular activity of representative compounds was obtained by measuring the p-Tau levels in HEK293 cells expressing human full-length DYRK1A and Tau.
(§2) Kinase assays. For most assays, kinase-tagged T7 phage strains were prepared in an E. coli host derived from the BL21 strain. E. coli were grown to log-phase and infected with T7 phage and incubated with shaking at 32 °C until lysis. The lysates were centrifuged and filtered to remove cell debris. The remaining kinases were produced in HEK-293 cells and subsequently tagged with DNA for qPCR detection. Streptavidin-coated magnetic beads were treated with biotinylated small molecule ligands for 30 minutes at room temperature to generate affinity resins for kinase assays. The liganded beads were blocked with excess biotin and washed with blocking buffer (SeaBlock (Pierce), 1% BSA, 0.05% Tween 20, 1 mM DTT) to remove unbound ligand and to reduce non-specific binding. […] Test compounds were prepared as 111× stocks in 100% DMSO. Kas were determined using an 11-point 3-fold compound dilution series with three DMSO control points. All compounds for Kd measurements are distributed by acoustic transfer (non-contact dispensing) in 100% DMSO. The compounds were then diluted directly into the assays such that the final concentration of DMSO was 0.9%. All reactions performed in polypropylene 384-well plate. Each was a final volume of 0.02 mL. The assay plates were incubated at room temperature with shaking for 1 hour and the affinity beads were washed with wash buffer (1×PBS, 0.05% Tween 20). The beads were then re-suspended in elution buffer (1×PBS, 0.05% Tween 20, 0.5 μM non-biotinylated affinity ligand) and incubated at room temperature with shaking for 30 minutes. The kinase concentration in the eluates was measured by qPCR.

DYRK1A [2] = target: T1, DYRK1A; test: Competitive binding assay, KD to DYRK1A
Procedure: as §1, §2

[3] = target: T2, Tau phosphorylation (human DYRK1A and Tau) in HEK293 cells (Homo sapiens, UniProt Q13627); test: Kinase cellular assay: p-Tau levels in HEK293 cells expressing full-length human DYRK1A and Tau; assay type: cell-based; details: Table 1a
T2 construct: p-Tau ELISA
Procedure: as §1
Kinase Cellular Assay: HEK293 human embryonic kidney cells were transiently co-transfected with vectors encoding full-length human DYRK1A and Tau. Cells were dispensed into 96-well plates at a number previously determined by cell titration and signal optimization for the DYRK1A assay. Compounds were diluted to 200× final assay concentration in DMSO. Eight 3-fold or 4-fold serial dilutions were prepared for each compound in 100% DMSO. Compounds were then diluted in tissue culture medium to 10× final assay concentration and 5% DMSO. Compounds were added to the cells in 96-well plates (10-fold dilution in medium) for a final concentration of 1× compound and 0.5% DMSO. For positive (high signal) controls, cells were treated with 0.5% DMSO alone. For negative (low signal) controls, cells were treated with 20 μM harmine including 0.5% DMSO final concentration. Cells were incubated with compound at 37 °C for 2 hours. Cells were lysed, and lysates were transferred to an ELISA plate that had been previously coated with antibody to capture the substrate (human Tau). Plates were washed then incubated with an antibody to detect phosphorylation of Tau. Plates were washed then incubated with HRP-linked secondary antibody. Plates were washed, then HRP substrate was added. Absorbance was read at 450 nm. Percent inhibition values were calculated from absorbance readings based on positive and negative control values, and according to the following formula: (% INH=((positive control−sample)/(positive control−negative control))[…]. Z′ values were calculated based on the following formula: 1−[(3×standard deviation of positives+3×standard deviation of negatives)/(average positive−average negative)]. Percent inhibition values were plotted vs. the log of compound concentrations utilizing GraphPad Prism software. IC50s were determined after utilizing sigmoidal dose response curve fitting to generate the curves.

IL-17 = test: T-cell inflammation inhibition assay (anti-CD3 stimulated PBMCs), IL-17; assay type: cell-based; details: Homo sapiens, PBMC, read-out: % inh at 5 μM IL17
Procedure: (§3) T-cell Inflammation Inhibition Assay Protocol: Day 1, High binding plates were coated with anti-CD3 (clone UCHT-1, 2 μg/mL) and isotype IgG1 using PBS 1× and incubated overnight at 4 °C. Day 2: Cryopreserved PBMCs were drip thawed and diluted to the appropriate density and seeded into U bottom 96-well polypropylene plates (1.2×10^5 cells per well) with 228 μL per well of culture medium (RPMI 1640, 10% heat-inactivated FBS, 1% penicillin/streptomycin, 2 mM L-glutamine). Cells were incubated at 37 °C, 5% CO2 for 1 hour prior to the addition of test compounds. Test compounds were solubilized in DMSO and further diluted to 20× with cell culture medium. Compounds were added to the PBMCs in volumes of 12 μL (1×) in triplicate and incubated for 1 hour at 37 °C, 5% CO2. For reference compound, 12 μL of dexamethasone (100 nM) was added to the control wells according to the plate map and incubated for 1 hour at 37 °C, 5% CO2. After 1 hour incubation, 200 μL of cells (1×10^5) treated with test compounds or controls were transferred to the anti-CD3 coated plates and incubated for 24 hours at 37 °C, 5% CO2, For positive and negative controls, transferred 200 μL (1×10^5) of cells to the coated plate with anti-CD3 or isotype IgG1. Plates were centrifuged at 200×g for 10 minutes. Cell culture supernatants were collected and stored at −80 °C until needed for analysis. Cytokine levels in each sample were determined using Luminex methodology, per the manufacturer's protocol, Luminex assessment of cytokine levels in cell culture supernatants in tissue culture medium, was performed per manufacturer's protocol using the Human Cytokine/Chemokine Magnetic bead panel from Millipore Sigma (catalogue No. HCYTOMAG-60K) with standards range 3.2, 16, 80, 400, 2,000, 10,000 pg/mL. Cytokines Measured: The following cytokines were measured for a complete cytokine response profile. Human panel, T cell (neat): IL-2, IL-17, […].

IL-2 = test: T-cell inflammation inhibition assay (anti-CD3 stimulated PBMCs), IL-2; assay type: cell-based; details: Homo sapiens, PBMC, read-out: % inh at 5 μM IL2
Procedure: as §3

INFg = test: T-cell inflammation inhibition assay (anti-CD3 stimulated PBMCs), IFN gamma; assay type: cell-based; details: Homo sapiens, PBMC, read-out: % inh at 5 μM INFg
Procedure: as §3

Row | SMILES | inhibition at 10 µM (DYRK1A [1]) [%] | Kd (DYRK1A [2]; read-out: KD) [nM] | Kd (DYRK1A [2]; read-out: KD (bound)) [nM] | IC50 [3] [nM] | inhibition at 5 µM (IL-17) [%] | inhibition at 5 µM (IL-17; second value) [%] | inhibition at 5 µM (IL-2) [%] | inhibition at 5 µM (IL-2; second value) [%] | inhibition at 5 µM (INFg) [%] | further results
1 | CC1(COC(=O)Nc2nc3cc(-c4ccncc4)ccc3[nH]2)COC1 [Compound 1, (3-methyloxetan-3-yl)methyl (5-(pyridin-4-yl)-1H-benzo[d]imidazol-2-yl)carbamate] | 100 | 0.17 | < 1 | 37 | – | – | – | – | – | inhibition at 1 µM (DYRK1A [1]): 100%; inhibition at 0.1 µM (DYRK1A [1]; read-out: % inh at 0.1 μM): 100%
2 | COC(=O)Nc1nc2cc(-c3ccnc(C)c3)ccc2[nH]1 [Compound 2, Methyl (5-(2-methylpyridin-4-yl)-1H-benzo[d]imidazol-2-yl)carbamate] | – | 0.72 | < 1 | 280 | 22.8 | 35.9 | 46.5 | 42.3 | 31.4 | inhibition at 5 µM (INFg; second value): 11.5%
3 | Cc1cc(-c2ccc3[nH]c(NC(=O)OCC4COC4)nc3c2)ccn1 [Compound 5, Oxetan-3-ylmethyl (5-(2-methylpyridin-4-yl)-1H-benzo[d]imidazol-2-yl)carbamate] | – | 0.33 | < 1 | 55 | 47.8 | 51.8 | 78.2 | 59.3 | 58.8 | inhibition at 5 µM (INFg; second value): 46%
4 | Cc1cc(-c2ccc3[nH]c(NC(=O)NCC4(C)COC4)nc3c2)ccn1 [Compound 6, 1-((3-Methyloxetan-3-yl)methyl)-3-(5-(2-methylpyridin-4-yl)-1H-benzo[d]imidazol-2-yl)urea] | – | – | – | 827 | 9.3 | 7.3 | 38.9 | 35.8 | 30 | –
5 | O=C(Nc1nc2cc(-c3cccnc3)ccc2[nH]1)OCC1COC1 [Compound 7, Oxetan-3-ylmethyl (5-(pyridin-3-yl)-1H-benzo[d]imidazol-2-yl)carbamate] | – | – | – | – | – | – | 36.9 | 43.4 | 24.4 | –
6 | O=C(Nc1nc2cc(-c3ccncc3)ccc2[nH]1)OCC1COC1 [Compound 10, Oxetan-3-ylmethyl (5-(pyridin-4-yl)-1H-benzo[d]imidazol-2-yl)carbamate] | – | – | – | 26 | 35 | 30.4 | 76.1 | 59.8 | 57.5 | inhibition at 5 µM (INFg; second value): 39.9%
7 | CC1(CNC(=O)Nc2nc3cc(-c4ccncc4)ccc3[nH]2)COC1 [Compound 11, 1-((3-Methyloxetan-3-yl)methyl)-3-(5-(pyridin-4-yl)-1H-benzo[d]imidazol-2-yl)urea] | – | 0.33 | < 1 | – | – | – | – | – | – | –
8 | Cc1cc(-c2ccc3[nH]c(NC(=O)OCC4(C)COC4)nc3c2)ccn1 [Compound 12, (3-methyloxetan-3-yl)methyl (5-(2-methylpyridin-4-yl)-1H-benzo[d]imidazol-2-yl)carbamate] | – | 0.14 | < 1 | – | – | – | – | – | – | –
9 | COC(=O)Nc1nc2cc(OC)ccc2[nH]1 [Compound 17, Methyl (5-methoxy-1H-benzo[d]imidazol-2-yl)carbamate] | 69 | – | – | – | – | – | – | – | – | –
10 | COc1ccc2[nH]c(N)nc2c1 [Compound 18, 5-Methoxy-1H-benzo[d]imidazol-2-amine] | 11 | – | – | – | – | – | – | – | – | –
11 | COc1ccc2[nH]c(NC(=O)OCCN(C)C)nc2c1 [Compound 19, 2-(Dimethylamino)ethyl (5-methoxy-1H-benzo[d]imidazol-2-yl)carbamate] | 51 | – | – | – | – | – | – | – | – | –
12 | COc1ccc2[nH]c(NC(=O)OCC3(C)COC3)nc2c1 [Compound 20, (3-Methyloxetan-3-yl)methyl (5-methoxy-1H-benzo[d]imidazol-2-yl)carbamate] | 96.4 | – | – | – | – | – | – | – | – | inhibition at 1 µM (DYRK1A [1]): 63%
13 | COc1ccc2[nH]c(NC(=O)OCc3cccc(F)c3)nc2c1 [Compound 21, 3-Fluorobenzyl (5-methoxy-1H-benzo[d]imidazol-2-yl)carbamate] | 69 | – | – | – | – | – | – | – | – | –
